The results in this text go back to patent US9890166B2, “Imidazopyrrolidine derivatives and their use in the treatment of disease” (NOVARTIS AG, priority 2013, dated 2018).

pIC50: −log10 of the molar value.

Experiment [1] concerns THP-1 cells. Nature of the experiment: Cell growth inhibition assay (CellTiter-Glo), THP-1.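 As to all read-outs here: viability read as cellular ATP luminescence after 4 days, 3-fold dilution series from 10 µM, DMSO vehicle-treated cells taken as 100%, cell-free medium wells as −100%.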 The settings on record: for GI50: Homo sapiens, THP-1, read-out: THP-1 GI50; for THP-1 TGI: THP-1 cells, total growth inhibition, CellTiter-Glo.
Experiment [2] concerns MV-4-11 cells. Nature of the experiment: Cell growth inhibition assay (CellTiter-Glo), MV-4-11.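 As to all read-outs here: cellular ATP luminescence after 4 days, 3-fold dilution series from 10 µM top dose, vehicle (0.1% DMSO) set to 100%, cell-free medium set to −100%, day 0 corrected.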 The settings on record: for GI50: Homo sapiens, MV4-11, read-out: MV-4-11 GI50; for MV-4-11 TGI: MV-4-11 cells, total growth inhibition, CellTiter-Glo. (In general: ATP-based viability assays read luminescence as a measure of living cells.)
In experiment [3] the target is BRD4 (His-Brd4(44-477)) (Homo sapiens (Human), UniProt O60885). In words: TR-FRET in-vitro binding assay for BRD4. The settings on record: single determination or n ≧ 2 independent determinations, read-out: Biochemical IC50 BRD4. A digest of the protocol: (§1)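 His-tagged BRD2, BRD3 and BRD4 fragments tested by TR-FRET at 8 compound concentrations, with DMSO stocks at 10 mM. Read on EnVision after 35 min incubation at 30° C.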
Background: Time-resolved FRET reads energy transfer from a long-lived donor to a nearby acceptor.

For experiment [4], the target named is BRD3 (His-Brd3(20-477)) (Homo sapiens (Human), UniProt Q15059). Nature of the experiment: TR-FRET in-vitro binding assay for BRD3. As to conditions: single determination or n ≧ 2 independent determinations, read-out: Biochemical IC50 BRD3. The essentials: as §1
The target in experiment [5] is nuclear BRD4-NUT foci in HCC2494 NUT midline carcinoma cells (Homo sapiens, UniProt O60885). Nature of the experiment: cell-based.
Experiment [6] concerns the target BRD2 (His-Brd2(60-472)) (Homo sapiens (Human), UniProt P25440). Nature of the experiment: TR-FRET in-vitro binding assay for BRD2. As to conditions: single determination or n ≧ 2 independent determinations, read-out: Biochemical IC50 BRD2. A digest of the protocol:
as §1

Experiment [7] deals with K-562 cells. In words: Cell growth inhibition assay (CellTiter-Glo), K-562.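 As to all read-outs here: cellular ATP measured by luminescence after 4 days of exposure, 3-fold dilution series from 10 µM, DMSO vehicle-treated cells define 100%, cell-free medium wells −100%.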 The settings on record: for GI50: Homo sapiens, K562, read-out: K-562 GI50; for K-562 TGI: K-562 cells, total growth inhibition, CellTiter-Glo.
For experiment [8], the target named is CREBBP bromodomain (His-CREBBP(1081-1197)) (Homo sapiens (Human), UniProt Q92793). In words: AlphaScreen in-vitro binding assay for CREBBP. The settings on record: single determination or n ≧ 2 independent determinations, read-out: Biochemical IC50 CREBBP. A digest of the protocol:
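Detection used nickel-chelate acceptor plus streptavidin donor AlphaScreen beads, 1 h room temperature. Percent inhibition fitted by non-linear regression to IC50.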
For orientation: Bead proximity is the source of the signal in Alpha formats.

Chain of CREBBP bromodomain (His-CREBBP(1081-1197)) (Q92793 1081-1197): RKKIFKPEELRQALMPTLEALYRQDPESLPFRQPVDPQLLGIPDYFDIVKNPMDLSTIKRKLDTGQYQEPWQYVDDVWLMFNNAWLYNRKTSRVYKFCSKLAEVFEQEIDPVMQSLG
Chain of BRD2 (His-Brd2(60-472)) (P25440 60-472): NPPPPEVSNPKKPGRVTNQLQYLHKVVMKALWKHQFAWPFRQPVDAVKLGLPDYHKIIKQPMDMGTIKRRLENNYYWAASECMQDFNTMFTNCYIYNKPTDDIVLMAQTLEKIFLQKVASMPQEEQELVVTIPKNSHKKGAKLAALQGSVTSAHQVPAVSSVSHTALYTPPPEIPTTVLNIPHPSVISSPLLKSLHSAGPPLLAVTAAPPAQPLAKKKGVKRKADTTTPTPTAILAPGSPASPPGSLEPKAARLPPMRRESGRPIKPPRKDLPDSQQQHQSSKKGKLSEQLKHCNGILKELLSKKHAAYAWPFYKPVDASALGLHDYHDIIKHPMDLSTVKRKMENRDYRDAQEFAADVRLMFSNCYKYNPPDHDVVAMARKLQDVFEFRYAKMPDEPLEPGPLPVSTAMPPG
Chain of BRD3 (His-Brd3(20-477)) (Q15059 20-477): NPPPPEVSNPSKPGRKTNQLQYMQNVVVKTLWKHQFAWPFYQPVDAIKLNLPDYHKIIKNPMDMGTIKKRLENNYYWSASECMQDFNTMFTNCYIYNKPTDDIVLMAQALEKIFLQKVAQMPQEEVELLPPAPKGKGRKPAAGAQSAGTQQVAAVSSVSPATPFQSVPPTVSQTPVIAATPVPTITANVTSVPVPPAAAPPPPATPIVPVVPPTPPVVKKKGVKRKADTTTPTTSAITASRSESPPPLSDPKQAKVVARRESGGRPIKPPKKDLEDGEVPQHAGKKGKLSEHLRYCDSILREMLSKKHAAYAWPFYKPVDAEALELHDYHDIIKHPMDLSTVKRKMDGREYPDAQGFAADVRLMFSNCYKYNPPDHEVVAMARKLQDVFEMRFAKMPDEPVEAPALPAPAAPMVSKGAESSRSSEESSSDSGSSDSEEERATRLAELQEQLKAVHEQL

Turning to `CCn1c(-c2ccc(OC)nc2)nc2c1C(=O)N(c1cc(C)c(=O)n(C)c1)[C@@H]2c1ccc(Cl)cc1` [Example 39, (R)-6-(4-chlorophenyl)-5-(1,5-dimethyl-6-oxo-1,6-dihydropyridin-3-yl)-3-ethyl-2-(6-methoxypyridin-3-yl)-5,6-dihydropyrrolo[3,4-d]imidazol-4(3H)-one], the GI50 (as a rule, the concentration that inhibits growth by half) in experiment [1] was 26.2 nM; in experiment [2] it was 11.7 nM; in experiment [7] it was 72 nM. Further, in experiment [1], the “THP-1 TGI” value was 48.1 nM. Also, the “MV-4-11 TGI” value in experiment [2] came to 23.9 nM. In addition, the negative logarithm of the IC50 (pIC50) (commonly −log10 of the IC50, conventionally taken in molar units) was 7.55 in experiment [3]; 7.49 in experiment [4]; 7.68 in experiment [5]; 7.62 in experiment [6]; 6.04 in experiment [8]. In addition, the “K-562 TGI” value in experiment [7] was >10000 nM.

With `CCn1c(C)nc2c1C(=O)N(c1cc(C)c3nnn(C)c3c1)C2c1ccc(Cl)cc1` (stereo not shown) [Example 121, 6-(4-chlorophenyl)-5-(3,7-dimethyl-3H-benzo[d][1,2,3]triazol-5-yl)-3-ethyl-2-methyl-5,6-dihydropyrrolo[3,4-d]imidazol-4(3H)-one], the concentration for 50% growth inhibition (GI50) in experiment [1] was determined as 9 nM; in experiment [2], 10.8 nM; in experiment [7], 48.1 nM. Moreover, the “THP-1 TGI” value in experiment [1] came out at 20.1 nM. The “MV-4-11 TGI” value in experiment [2] turned out to be 20.9 nM. Also, the pIC50 was 7.54 in experiment [3]; 7.57 in experiment [4]; 8.51 in experiment [5]; 7.54 in experiment [6]; 5.36 in experiment [8]. Also, the “K-562 TGI” value in experiment [7] was >10000 nM.

In the case of `COc1ccc(-c2nc3c(n2C(C)C)C(c2ccc(Cl)cc2)N(c2cc(C)c4nnc(C)n4c2)C3=O)cn1` (stereo not shown) [Example 9, 6-(4-chlorophenyl)-5-(3,8-dimethyl-[1,2,4]triazolo[4,3-a]pyridin-6-yl)-1-isopropyl-2-(6-methoxypyridin-3-yl)-5,6-dihydropyrrolo[3,4-d]imidazol-4(1H)-one], the 50% growth inhibitory concentration (GI50) came out at 98.7 nM in experiment [1], 48.4 nM in experiment [2] and 258 nM in experiment [7]. Besides, the “THP-1 TGI” value in experiment [1] amounted to 175 nM. For the same molecule, the “MV-4-11 TGI” value in experiment [2] stood at 94.2 nM. Moreover, the negative-log IC50 (pIC50) in experiment [3] is 7.47; in experiment [4] it was 7.47; in experiment [5], 5.68; in experiment [6] it was 7.37; in experiment [8], < 4.43. In experiment [7], the “K-562 TGI” value is >10000 nM.

On to `Cc1cc(N2C(=O)c3[nH]c(C4CC4)nc3C2c2ccc(Cl)cc2)cn(C)c1=O` (stereo not shown) [Example 46, 6-(4-chlorophenyl)-2-cyclopropyl-5-(1,5-dimethyl-6-oxo-1,6-dihydropyridin-3-yl)-5,6-dihydropyrrolo[3,4-d]imidazol-4(3H)-one], for which the GI50 in experiment [1] came to 145 nM; in experiment [2] it was 65.3 nM; in experiment [7] it was 499 nM. Also, the “THP-1 TGI” value in experiment [1] worked out at 305 nM. Moreover, the “MV-4-11 TGI” value in experiment [2] was 108 nM. Besides, the pIC50 in experiment [3] was 7.11; in experiment [4] it was 7.11; in experiment [5], 6.65; in experiment [6], 7.08; in experiment [8], 5.70. In addition, the “K-562 TGI” value in experiment [7] was >10000 nM.

With `COc1cc(N2C(=O)c3nc(C4=CCOCC4)n(C(C)C)c3C2c2ccc(Cl)cc2)cn2c(C)nnc12` (stereo not shown) [Example 53, 6-(4-chlorophenyl)-2-(3,6-dihydro-2H-pyran-4-yl)-1-isopropyl-5-(8-methoxy-3-methyl-[1,2,4]triazolo[4,3-a]pyridin-6-yl)-5,6-dihydropyrrolo[3,4-d]imidazol-4(1H)-one], the GI50 in experiment [1] turned out to be 1270 nM; in experiment [2], 505 nM; in experiment [7] it was 7990 nM. The “THP-1 TGI” value in experiment [1] was 3740 nM. In addition, in experiment [2], the “MV-4-11 TGI” value was 939 nM. Also, the pIC50 is 7.04 in experiment [3]; 6.70 in experiment [4]; 5.88 in experiment [5]; 6.66 in experiment [6]; < 4.43 in experiment [8]. Also, the “K-562 TGI” value in experiment [7] was >10000 nM.
